The values that follow come from patent US10214724B2, “Methods for differentiation of human pluripotent stem cells to brain microvascular endothelial cells” (Wisconsin Alumni Research Foundation, priority 2016, dated 2019).

For experiment [1], the system named is IMR90-4 induced pluripotent stem cells. Kind of experiment: Brachyury expression after CHIR99021 treatment (immunostaining, flow cytometry). The note with it: 6 μM, 24 hr treatment in DeSR1; IMR90-4 iPSCs. In kind it is cell-based, human. The protocol:
Given the roles of canonical Wnt signaling in both mesoderm specification and BBB development, we first treated hPSCs with CHIR99021, a GSK-3β inhibitor and Wnt agonist, to direct hPSCs to mesoderm-derived endothelial progenitors. Prior to treatment, IMR90-4 induced pluripotent stem cells (iPSCs) were seeded on a Matrigel-coated six-well plate at a density of 35×10^3 cells/cm^2 and expanded in an undifferentiated state for three days in mTeSR1™ (FIG. 1A). […] After 24 hours, the medium was removed and cells were transitioned to DeSR2 (DeSR1 plus B27 supplement) for another five days with daily medium changes. At day 0, pluripotency was verified by OCT4, NANOG and TRA-1-60 immunostaining (FIGS. 1B-D). After 24 hr of CHIR99021 treatment, almost 100% of the cells expressed brachyury, assessed by immunostaining (FIG. 1E) and flow cytometry (FIG. 1F), indicating progression to primitive streak. […] At day 4, more than 90% of the cells expressed the intermediate mesoderm marker PAX2 (FIGS. 1G, 1H) and PAX2 expression peaked at day 6 (FIG. 5). […]
Cells were dissociated with Accutase™ and fixed in 1% PFA for 15 min at room temperature, then washed with 0.5% BSA (Bio-Rad) plus 0.1% Triton-X100 three times. […] Data were collected on a FACSCaliber flow cytometer (Beckton Dickinson) and analyzed using FlowJo. […]
Background: In flow cytometry, cells or beads pass a laser one at a time.

Experiment [2] has as its system tight junction related genes TJP1, CLDN5 and OCLN and efflux transporters ABCG2, ABCC1, and ABCB1. Kind of experiment: Quantitative RT-PCR of tight junction and transporter genes with or without RA. In kind it is cell-based, human. As to conditions: 10 μM RA day 6 to day 8; qPCR at day 8. For orientation: Real-time PCR tracks product formation cycle by cycle.
Description: Total RNA was extracted with the RNeasy mini kit (QIAGEN) and treated with DNase (QIAGEN). 1 μg total RNA was reverse transcribed into cDNA via Oligo (dT) with Superscript III Reverse Transcriptase (Invitrogen). Real-time quantitative PCR was done in triplicate with iQSYBR Green™ SuperMix (Bio-Rad). GAPDH was used as an endogenous housekeeping control.
Experiment [3] concerns hPSC-derived BMECs. The experiment in a line: TEER of hPSC-derived BMECs on Transwells. In kind it is cell-based, human. As to conditions: cells differentiated in the presence of RA; replated day 8, measured at day 10. The protocol:
BMECs were differentiated as shown in FIG. 1A in the presence or absence of RA, as indicated. (A) At day 8 expression of tight junction and transporter genes was assessed by qPCR. (B) Flow cytometry for CD31 expression was performed at days 6 and 8. (C) Pgp expression was quantified by flow cytometry at day 10. At day 6, medium was switched to hESFM containing or lacking RA, as indicated. (D) At day 8, cells were replated onto Matrigel®-coated Transwell® membranes at 10^6 cells/cm^2 in the presence or absence of 10 μM Y27632 (ROCK inhibitor). Y27632 was added to increase attachment (Pipparelli et al., PloS one 2013, 8:e62095) of cells differentiated in the absence of RA and permit confluent monolayer formation. TEER was measured at day 10, two days after replating (D). (E, G) Occludin and (F, G) ZO-1 expression and localization were assessed by flow cytometry and immunostaining at day 10. Red arrows indicate non-uniform occludin or ZO-1. Claudin-5 expression at day 10 was assessed by flow cytometry (H, I). (I) At day 10, expression level of claudin-5 in BMECs differentiated in the presence or absence of RA were assessed by flow cytometry. (J) Localization and expression of claudin-5 of cells differentiated in the absence of RA was determined via immunostaining (white arrows indicate non-positive claudin-5 and red arrows indicate discontinuous claudin-5). […]

In experiment [4] the test system is hPSC-derived BMECs. The experiment in a line: Flow cytometry of BMEC marker proteins (claudin-5, Pgp, occludin, ZO-1) with or without RA. In kind it is cell-based, human. The source says: Data were collected on a FACSCaliber flow cytometer (Beckton Dickinson) and analyzed using FlowJo.
Experiment [5] concerns hPSC-derived BMECs. The experiment in a line: ICAM-1 induction by TNF-α. The note with it: 10 ng/mL TNF-α for 16 hours; day 10 hPSC-derived BMECs.
Description: (D-F) ICAM-1 induction in hPSC-derived BMECs. hPSC-derived BMECs at day 10 were treated with 10 ng/mL of TNF-α for 16 hours. Cells were stained for ICAM-1 (D) before and (E) after TNF-α treatment. (F) Cells were dissociated or dissociated with Accutase™ and ICAM-1 expression quantified by flow cytometry before and after TNF-α treatment. […] Data were collected at least from three independent samples and are represented as mean±SEM. **p<0.01, ***p<0.001.

Regarding `Cc1c[nH]c(-c2cnc(NCCNc3ccc(C#N)cn3)nc2-c2ccc(Cl)cc2Cl)n1` [CHIR99021], in experiment [1], the cells expressing brachyury was around 100%.

For `CC1=C(/C=C/C(C)=C/C=C/C(C)=C/C(=O)O)C(C)(C)CCC1` [RA, retinoic acid], the “expression of TJP1, CLDN5, OCLN, ABCG2, ABCC1 and ABCB1 in cells exposed to RA vs. lacking RA” value in experiment [2] is 3-20 fold. Moreover, the TEER in the experiment with hPSC-derived BMECs [3] is recorded as ~4000 Ω·cm^2. In the experiment on hPSC-derived BMECs [4] (RA-treated cells, day 10, flow cytometry (around 60% in the absence of RA)), the “cells expressing claudin-5” value came to 100%. In the experiment on hPSC-derived BMECs [4] (differentiated in the presence of RA, day 10, flow cytometry), the “cells expressing Pgp” value is around 100%.

As for TNF-α, the ICAM-1 expression result in the experiment with hPSC-derived BMECs [5] is given as “upregulation”.
